Experimental data from US20130045969A1, “PLANT DISEASE CONTROLLING COMPOSITION AND METHOD FOR CONTROLLING PLANT DISEASE” (SUMITOMO CHEMICAL COMPANY, LIMITED, priority 2010, published 2013).

Tested on: gray mold fungus (Botrytis cinerea)
Assay: Cucumber leaf disk preventive test against gray mold
Assay type: in vivo
Conditions: single compound, 15° C., four days
Experimental: True leaf of cucumber is punched out with cork borer to 13 mm in diameter to prepare a leaf disk. In 24 well microwell plate that is dispensed with 1 ml 0.8% water agar, the leaf disk is placed such that the upper side of the leaf is in an upward direction. Thereto is added 20 micro liter a testing solution prepared by mixing a dimethyl sulfoxide solution of the present compound (racemate) and a dimethyl sulfoxide solution of trifloxystrobin or pyribencarb to a predetermined concentration to treat the leaf disk. After confirming that the testing medical solution is dried, conidium of gray mold fungus (Botrytis cinerea) is suspended into potato dextrose broth (DIFCO) in a density of about 10^5 conidium/mL and is then subjected to a spray inoculation. After leaving to stand the leaf disk in a growth chamber set up at 15° C. for four days, an onset area on the leaf is measured and then calculated an onset area rate (hereinafter, referred to as an onset area rate of treated group). The same operation is carried out with 20 micro liter water instead of 20 micro liter a testing medicine solution to calculate an onset area rate (hereinafter, referred to an onset area rate of non-treated group). A preventive value is calculated from the above onset area rate of treated group and the onset area rate of non-treated group by the following equation: Preventive value (%)=100×(A−B)/A […] The same operations as described in Test Example 1 are carried out with azoxystrobin, dimoxystrobin, fluoxastrobin, kresoxim-methyl, metominostrobin, orysastrobin, picoxystrobin or pyraclostrobin instead of trifloxystrobin or pyribencarb, so as to calculate respective preventive values. Also for comparison, the same operations as described in Test Example 1 are carried out with the exception that the testing medicine solution is substituted with a predetermined concentration of each dimethyl sulfoxide solution of the present compound (racemate), azoxystrobin, dimoxystrobin, fluoxastrobin, kresoxim-methyl, metominostrobin, orysastrobin, picoxystrobin or pyraclostrobin, so as to calculate respective preventive values. For comparison, the same operations as described in Test Example 1 are carried out with the exception that the testing medicine solution is substituted with a predetermined concentration of each dimethyl sulfoxide solution of trifloxystrobin or pyribencarb, so as to calculate respective preventive values.

[1] = treatment concentration 0.5 ppm
[2] = treatment concentration 5.0 ppm

CO/C=C(/C(=O)OC)c1ccccc1Oc1cc(Oc2ccccc2C#N)ncn1 [azoxystrobin]
preventive value (%) [1]: 43% | preventive value (%) [2]: 53%

CNC(=O)/C(=N/OC)c1ccccc1COc1cc(C)ccc1C [dimoxystrobin]
preventive value (%) [1]: 48% | preventive value (%) [2]: 57%

CO/N=C(/C1=NOCCO1)c1ccccc1Oc1ncnc(Oc2ccccc2Cl)c1F [fluoxastrobin]
preventive value (%) [1]: 43% | preventive value (%) [2]: 52%

CO/N=C(/C(=O)OC)c1ccccc1COc1ccccc1C [kresoxim-methyl]
preventive value (%) [1]: 47% | preventive value (%) [2]: 52%

CNC(=O)/C(=N/OC)c1ccccc1Oc1ccccc1 [metominostrobin]
preventive value (%) [1]: 10% | preventive value (%) [2]: 20%

CNC(=O)/C(=N/OC)c1ccccc1CO/N=C(C)/C(=N/OC)C(/C)=N/OC [orysastrobin]
preventive value (%) [1]: 10% | preventive value (%) [2]: 25%

CO/C=C(/C(=O)OC)c1ccccc1COc1cccc(C(F)(F)F)n1 [picoxystrobin]
preventive value (%) [1]: 10% | preventive value (%) [2]: 30%

COC(=O)N(OC)c1ccccc1COc1ccn(-c2ccc(Cl)cc2)n1 [pyraclostrobin]
preventive value (%) [1]: 15% | preventive value (%) [2]: 35%

COC(=O)NCc1cc(/C(C)=N/OCc2cccc(C)n2)ccc1Cl [pyribencarb]
preventive value (%) [1]: 42% | preventive value (%) [2]: 58%

CON=C(C(=O)OC)c1ccccc1CON=C(C)c1cccc(C(F)(F)F)c1 [trifloxystrobin]
preventive value (%) [1]: 10% | preventive value (%) [2]: 20%
